According to PubChem BioAssay AID1117361 (Southern Research Institute, 2015):

Each compound was assayed against Protein Tat (Human immunodeficiency virus type 1 group M subtype B (isolate HXB2)) (UniProt P04608) (assay: HIV-1 Tat–TAR interaction blockers – biochemical, fluorescence polarization, FAM-labeled TAR RNA, counter-screen for Vif-APOBEC3G degradation inhibitor project, dose response (AID 1117361)). Conditions: Tat-TAR RNA binding.
Chain of Protein Tat (Human immunodeficiency virus type 1 group M subtype B (isolate HXB2)) (P04608 whole entry, looked up): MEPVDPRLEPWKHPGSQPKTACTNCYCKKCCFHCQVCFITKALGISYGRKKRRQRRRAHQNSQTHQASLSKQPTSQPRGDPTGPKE

| SMILES | IC50 [µM] |
| --- | --- |
| COc1cc(/C=C/C=C2/CC/C(=C/C=C/c3ccc(O)c(OC)c3)C2=O)ccc1O | 44.8 |
| CN(Cc1cnc2nc(N)nc(N)c2n1)c1ccc(C(=O)NC(CCC(=O)O)C(=O)O)cc1 (stereo not given) | 40.1 |
| O=C(Nc1ccc2nc(-c3ccco3)c(-c3ccco3)nc2c1)N1CCCCCC1 | 3.56 |
| O=C(O)c1ccc2c(c1)C1C(Cl)C(Sc3ccccc3[N+](=O)[O-])CC1C(c1cccc([N+](=O)[O-])c1)N2 (stereo not given) | 6.3 |
| CC[C@H](C)/C=C(C)/C=C/C1=CC2=CC(=O)[C@]3(C)OC(=O)[C@@H](C(C)=O)[C@@H]3C2=CO1 | 14.4 |
| COc1ccc2c3c(cccc13)N(C)N=C2C | 11.1 |
| COc1cccc(NC(=O)CSc2nnc(-c3ccco3)c(-c3ccco3)n2)c1 | 69.3 |
| CCOC(=O)C1=C(N)n2c(s/c(=C\c3ccco3)c2=O)=C(C(=O)OC(C)C)C1c1ccco1 (stereo not given) | 3.45 |
| CC(=O)c1sc2nc(-c3ccco3)ccc2c1N | 4.64 |
| CCN1C[C@@H]2[C@@H]3C(=O)N(Cc4ccccc4)C(=O)[C@@H]3[C@](C)(C(=O)OC)N2C1=NC1CCCCC1 | 79.8 |
| O=c1oc2c(O)c(O)cc3c(=O)oc4c(O)c(O)cc1c4c23 | 1.67 |
| NC(=O)c1c(NC(=O)c2ccc(S(=O)(=O)N3CCOCC3)cc2)sc2c1CCCCC2 | 58.3 |
| O=C1CCCC(O)=C1N=Nc1ccc(S(=O)(=O)N2CCOCC2)cc1 | 37.6 |
| COc1ccc(Nc2ccc(OC)cc2)cc1 | 23.2 |
| CC1=CC2(O)OCCN(CCO)C2=CC1=O (stereo not given) | 34.5 |
| O=C1/C(=C/c2ccco2)Oc2c1ccc(O)c2CN1CCCCC1 | 4.3 |
| CC1=CC(C)(C)Nc2ccc(OC(=O)CN3C(=O)c4cccc5cccc(c45)C3=O)cc21 | 15.3 |
| CCOc1ccc(-n2c(Cc3cc(=O)[nH]c(=O)[nH]3)nnc2SC(C)C(=O)OC)cc1 (stereo not given) | 92.9 |
| O=C1CC(c2ccco2)CC(O)=C1C=Nc1cc(Cl)ccc1O (stereo not given) | 20.5 |
| COC(=O)C1=C(C)N(Cc2ccccc2)C(=O)/C1=C\c1ccco1 | 79.7 |
| CCC(C)C(NC(=O)[C@@H](NC(=O)c1ccccc1F)C(C)C)C(=O)OC (stereo not given in full) | 30.7 |
| COc1ccccc1N1C(=O)NC(=O)/C(=C/c2ccc([N+](=O)[O-])s2)C1=O | 17.6 |
| NN=C1C(Cl)=C(Cl)C(Cl)=C1Cl | 62.9 |
| Cc1ccc(/C=C/C(=O)Nc2cccc(S(=O)(=O)N3CCOCC3)c2)o1 | 89.1 |
| O=C1NC(=O)N(Cc2ccco2)C(=O)/C1=C/C=C/c1ccco1 | 1.95 |
| COC(=O)c1ccccc1-c1c2ccc(=N)cc-2oc2cc(N)ccc12 | < 0.19 |
| Cc1n[nH]c(=S)n(NC(=O)/C=C/C(=O)Nn2c(=S)[nH]nc(C)c2=O)c1=O | 18.2 |
| C(=C\c1ccco1)/C=N/n1cnnc1 | 10.4 |

| SMILES | IC50 [µM] |
| --- | --- |
| Cn1c(N)c(C(=O)COC(=O)C2CCCCC2)c(=O)n(C)c1=O | 76.2 |
| O=C(NCC1CCCO1)c1cc(-c2ccco2)nc2ccccc12 (stereo not given) | 49.5 |
| COc1cccc(=O)c2c(C)n(-c3ccc(C(=O)O)cc3)c(C)c12 | 3.06 |
| Cc1noc(/C=C/c2ccco2)c1S(=O)(=O)N1CCC(C(=O)NCc2ccco2)CC1 | 6.93 |
| O=S(=O)(O)c1cc(O)c(N=Nc2ccc(O)cc2O)c2ccccc12 | 51.3 |
| Cc1ncc(CO)c(/C=N/NC(=O)c2cc(O)c(O)c(O)c2)c1O | 32.1 |
| CCC1S/C(=C(\C#N)C(=O)NCc2ccco2)N(c2ccc(F)cc2)C1=O (stereo not given) | 14.9 |
| Cc1sc2ncnc(SCc3ccco3)c2c1C | 17.6 |
| CNCc1ccccc1Sc1cc(O)ccc1O | 17.5 |
| O=C(NC1CCCC1)c1ccc2nc(-c3ccco3)c(-c3ccco3)nc2c1 | 2.08 |
| Cc1cccc(-n2nc3c(c2NC(=O)c2ccc(Br)o2)CSC3)c1 | 85.9 |
| O=C(Nc1ccccc1F)c1coc(=O)c(Br)c1 | 15 |
| CCN(CC(=O)Nc1c(C(=O)OC)[nH]c2ccccc12)c1ccc2c(c1)OCO2 | 14.3 |
| CC1=C(C(=O)Nc2ccccc2)C(c2ccc(C)o2)n2c(s/c(=C\c3ccco3)c2=O)=N1 (stereo not given) | 5.9 |
| CC(C)C1Nc2ccc(C(=O)O)cc2C2C=CCC21 (stereo not given) | 4.93 |
| CC(C(=O)O)N1C(=O)/C(=C/C=C/c2ccco2)SC1=S (stereo not given) | 1.54 |
| Cc1cc2c(c(=O)o1)C(c1ccc([N+](=O)[O-])o1)C(C#N)=C(N)O2 (stereo not given) | 9.96 |
| O=S(=O)(O)c1cc(Cl)cc(N=Nc2ccc(O)cc2O)c1O | 22.5 |
| CC1(C)Cc2nc3sc(C(=O)O)c(N)c3cc2CS1 | 28.3 |
| O=C1NC(=Nc2ccc(O)cc2)S/C1=C\C=C\c1ccco1 | 18.3 |
| Oc1cccc(C=NCc2ccccc2)c1O | 6.47 |
| Cc1nc2cc(-c3ccsc3-n3c(C)ccc3C)[nH]n2c(=O)c1Cl | 2.17 |
| O=C(NCc1ccccn1)c1ccc2nc(-c3ccco3)c(-c3ccco3)nc2c1 | 4.75 |
| N#C/C(=C/c1ccc(N2CCCCCC2)o1)c1cccc(F)c1 | 98.4 |
| O=C(Nc1ccc(F)cc1)C(c1ccccc1)N1CCN(S(=O)(=O)c2ccc3ccccc3c2)CC1 (stereo not given) | 1.23 |
| C=CCn1c(SCC(=O)NCCCC)nc2scc(-c3ccco3)c2c1=O | 17.8 |
| COc1ccc(NC(=O)CC2Nc3cccc4cccc(c34)NC2=O)cc1 (stereo not given) | 7.03 |
